Laboratory results reported in patent publication US4962109A, “Insecticidally and acaricidally active pyrimidine esters and intermediates therefor” (Imperial Chemical Industries PLC, priority 1985, dated 1990).

Assays:
Assay type in all cases: in vivo
[1] = system: Heliothis virescens (tobacco budworm - larvae); assay: Residual test on tobacco budworm larvae (HV), Cotton leaf, mortality; conditions: 48 h, read-out: HV grading of mortality
Method in brief: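 Product in acetone diluted with water containing 0.01% Lissapol NX, at 500, 250 or 100 ppm; pests and/or host medium (here cotton leaf) treated. Mortality scored one to three days later, graded A (80-100%), B (50-79%), C (<50%).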

[2] = system: Musca domestica (houseflies - adults); assay: Contact test on houseflies - adults (MD), Cotton wool/sugar, mortality; conditions: 72 h, 500 ppm, contact, 3 days, read-out: MD grading of mortality
Method in brief: (§1)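 Compound dissolved in acetone, diluted with water containing 0.01% by weight wetting agent to 500, 250 or 100 ppm. Pests held on host plant or foodstuff; pests and/or medium treated. Mortality scored one to three days later as grade A (80-100%), B (50-79%) or C (<50%) mortality or knockdown.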

[3] = system: Blattella germanica (cockroach nymphs); assay: Contact test on cockroach nymphs (BG/C), Plastic pot, mortality; conditions: 48 h, 500 ppm, contact, 2 days, read-out: BG/C grading of mortality
Method in brief: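 Cockroach nymphs and/or their medium were treated with aqueous preparations at 500, 250 or 100 ppm (acetone solution diluted in water with 0.01% Lissapol NX wetting agent). Mortality or knockdown was assessed typically 1–3 days later and graded A (80–100%), B (50–79%) or C (<50%).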

[4] = system: Spodoptera exigua (lesser army worm - larvae); assay: Residual test on lesser army worm larvae (SP), Cotton leaf, mortality; conditions: 48 h, 500 ppm, residual, 2 days, read-out: SP grading of mortality
Method in brief: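 Product dissolved in acetone and diluted in water with 0.01% wetting agent to 500, 250 or 100 ppm; larvae and/or cotton leaf host treated. Mortality or knockdown scored one to three days later and graded A (80-100%), B (50-79%) or C (<50%).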

Myzus persicae (aphids) = assay: Contact test on aphids (MP), Chinese Cabbage leaf, mortality; conditions: 72 h, 500 ppm, contact, 3 days, read-out: MP grading of mortality
Method in brief: as §1

[5] = system: Diabrotica balteata (rootworm larvae); assay: Residual test on rootworm larvae (DB), Filter paper/maize seed, mortality; conditions: 48 h, 500 ppm, residual, 2 days, read-out: DB grading of mortality
Method in brief: as §1

[6] = system: Tetranychus urticae (spider mites - ova); assay: Contact test on spider mites - ova (TUe), French bean leaf, mortality; conditions: 144 h, 500 ppm, contact, 6 days, read-out: TUe grading of mortality
Method in brief: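 Graded read-out: A 80-100%, B 50-79%, C below 50% mortality or knockdown, assessed usually 1-3 days post-treatment. Liquid preparations at 500, 250 or 100 ppm by weight, from acetone solution diluted in water with 0.01% wetting agent, applied to pests and/or their host plant or food medium.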

[7] = system: Nephotettix cincticeps (green leaf hopper - nymphs); assay: Contact test on green leaf hopper nymphs (NC), Rice plant, mortality; conditions: 48 h, 500 ppm, contact, 2 days, read-out: NC grading of mortality
Method in brief: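 Product dissolved in acetone, diluted in water with 0.01% wetting agent to 500, 250 or 100 ppm; nymphs and/or host rice plants treated. Mortality or knockdown assessed 1–3 days later, graded A (80-100%), B (50-79%), C (<50%).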

[8] = system: Tetranychus urticae (spider mites - adult); assay: Contact test on spider mites - adult (TUa), French bean leaf, mortality; conditions: 72 h, 500 ppm, contact, 3 days, read-out: TUa grading of mortality
Method in brief: as §1

[9] = system: Musca domestica (houseflies - adults); assay: Knockdown test on houseflies - adults (MD/KD), Cotton wool/sugar; conditions: 500 ppm, 4 hours, read-out: MD/KD grading of knockdown
Method in brief: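 Adult houseflies exposed to the compound at 500, 250 or 100 ppm in acetone/water with 0.01% wetting agent, on a cotton wool/sugar medium. Knockdown and mortality assessed, graded A (80-100%), B (50-79%) or C (<50%).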

| Structure (SMILES) | mortality at 500 ppm [1] [%] | mortality at 500 ppm [2] [%] | mortality at 500 ppm [3] [%] | mortality at 500 ppm [4] [%] | mortality at 500 ppm (Myzus persicae (aphids)) [%] | mortality at 500 ppm [5] [%] | mortality at 500 ppm [6] [%] | mortality at 500 ppm [7] [%] | mortality at 500 ppm [8] [%] | pest or weed control at 500 ppm [9] [%] |
| --- | --- | --- | --- | --- | --- | --- | --- | --- | --- | --- |
| COCc1c(F)c(F)c(COC(=O)C(c2cnc(N(C)C)nc2)C(C)(C)C)c(F)c1F (racemic) [Compound 199] | 80 to 100 | 80 to 100 | 80 to 100 | 80 to 100 | 80 to 100 | 50 to 79 | 80 to 100 | 80 to 100 | 80 to 100 | 80 to 100 |
| CC(C)(C)c1ncc(C(C(=O)OCc2cccc(Oc3ccccc3)n2)C(C)(C)C)cn1 (racemic) [Compound 9, (6-phenoxypyrid-2-yl)methyl (RS)-2-[2-(1,1-dimethylethyl)pyrimidin-5-yl]-3,3-dimethylbutanoate] | 80 to 100 | 80 to 100 | 50 to 79 | 80 to 100 | 80 to 100 | 50 to 79 | 80 to 100 | 80 to 100 | 80 to 100 | 80 to 100 |
| CCOCc1c(F)c(F)c(COC(=O)C(c2cnc(C(C)(C)C)nc2)C(C)(C)C)c(OC)c1F (racemic) [Compound 187, 2,3,5-trifluoro-6-methoxy-4-(ethoxymethyl)benzyl (RS)-2-[2-(1,1-dimethylethyl)pyrimidin-5-yl]-3,3-dimethylbutanoate] | 50 to 79 | 50 to 79 | < 50 | 80 to 100 | 80 to 100 | < 50 | < 50 | 80 to 100 | 80 to 100 | 80 to 100 |
| CC(C)(C)c1ncc(C(C(=O)OCc2c(F)c(F)c(CC3CC3(Cl)Cl)c(F)c2F)C(C)(C)C)cn1 (racemic) [Compound 216, 4-[(2,2-dichlorocyclopropyl)methyl]-2,3,5,6-tetrafluorobenzyl (RS)-2-[2-(1,1-dimethylethyl)pyrimidin-5-yl]-3,3-dimethylbutanoate] | < 50 | < 50 | < 50 | 50 to 79 | < 50 | < 50 | < 50 | 50 to 79 | 80 to 100 | < 50 |
| COCc1c(F)c(F)c(COC(=O)C(c2cnc(-c3ccccc3Cl)nc2)C(C)(C)C)c(F)c1F (racemic) [Compound 208, 2,3,5,6-tetrafluorbenzyl-4-(methoxymethyl)-benzyl (RS)-2-[2-(2-chlorophenyl)pyrimidin-5-yl]-3,3-dimethylbutanoate] | < 50 | < 50 | < 50 | < 50 | 80 to 100 | < 50 | < 50 | 80 to 100 | 80 to 100 | < 50 |
| CC(C)c1ncc(C(C(=O)OCc2ccc(F)c(Oc3ccccc3)c2)C(C)(C)C)cn1 (racemic) [Compound 197, 4-fluoro-3-phenoxybenzyl (RS)-2-[2-(1-methylethyl)pyrimidin-5-yl]-3,3-dimethylbutanoate] | 80 to 100 | < 50 | < 50 | 80 to 100 | 80 to 100 | 80 to 100 | 80 to 100 | 80 to 100 | 80 to 100 | 80 to 100 |
| CC(C)c1ncc([C@H](C(=O)O[C@H](C)c2cccc(Oc3ccccc3)n2)C(C)(C)C)cn1 (racemic) [Compound 74, (RS)-1-(6-phenoxypyridin-2-yl)ethyl (RS)-2-[2-(1-methylethyl)pyrimidin-5-yl]-3,3-dimethylbutanoate] | 80 to 100 | 50 to 79 | < 50 | 80 to 100 | 50 to 79 | < 50 | < 50 | 80 to 100 | 80 to 100 | < 50 |
| C[C@@H](OC(=O)[C@@H](c1cnc(C2(C)CC2)nc1)C(C)(C)C)c1cccc(Oc2ccccc2)n1 (racemic) [Compound 203, (RS)-1-(6-phenoxypyrid-2-yl)ethyl (RS)-2-[2-(1-methylcyclopropyl)pyrimidin-5-yl]-3,3-dimethylbutanoate] | 80 to 100 | 80 to 100 | 50 to 79 | 80 to 100 | 80 to 100 | < 50 | 50 to 79 | 80 to 100 | 80 to 100 | 80 to 100 |
| CCN(CC)Cc1c(F)c(F)c(COC(=O)C(c2cnc(C(C)(C)C)nc2)C(C)(C)C)c(F)c1F (racemic) [Compound 176] | 80 to 100 | 80 to 100 | < 50 | 80 to 100 | 80 to 100 | < 50 | < 50 | 80 to 100 | 80 to 100 | 80 to 100 |
| COCc1c(F)c(F)c(COC(=O)C(c2cnc(-c3ccccc3)nc2)C(C)(C)C)c(F)c1F (racemic) [Compound 161, 2,3,5,6-tetrafluoro-4-(methoxymethyl)benzyl (RS)-2-(2-phenylpyrimidin-5-yl)-3,3-dimethylbutanoate] | < 50 | 80 to 100 | 50 to 79 | 80 to 100 | 80 to 100 | 50 to 79 | 80 to 100 | 80 to 100 | 80 to 100 | 80 to 100 |
| CC(C)(C)c1ncc(C(C(=O)OCc2c(F)c(F)c(CC=CCl)c(F)c2F)C(C)(C)C)cn1 (racemic) [Compound 14, 4-(EZ-3-chloroprop-2-en-1-yl)-2,3,5,6-tetrafluorobenzyl (RS)-2-[(1,1-dimethylethyl)pyrimidin-5-yl)-3,3-dimethylbutanoate] | 80 to 100 | 80 to 100 | < 50 | < 50 | 80 to 100 | < 50 | < 50 | 80 to 100 | 80 to 100 | 50 to 79 |
| CCOCc1c(F)c(F)c(COC(=O)C(c2cnc(C(C)(C)C)nc2)C(C)(C)C)c(F)c1F (racemic) [Compound 186, 2,3,5,6-tetrafluoro-4-(ethoxymethyl)benzyl (RS)-2-[2-(1,1-dimethylethyl)pyrimidin-5-yl]-3,3-dimethylbutanoate] | 80 to 100 | < 50 | < 50 | 80 to 100 | 80 to 100 | < 50 | < 50 | 80 to 100 | 80 to 100 | 80 to 100 |
| CC(C)(C)c1ncc(C(C(=O)OCc2c(F)c(F)c(COc3ccccc3)c(F)c2F)C(C)(C)C)cn1 (racemic) [Compound 192, 2,3,5,6-tetrafluoro-4-(phenoxymethyl)benzyl (RS)-2-[2-(1,1-dimethylethyl)pyrimidin-5-yl]-3,3-dimethylbutanoate] | < 50 | < 50 | < 50 | 80 to 100 | 50 to 79 | < 50 | < 50 | < 50 | 80 to 100 | < 50 |
